According to patent publication US7659400B2, “Radiolabelled benzamide analogues, their synthesis and use in diagnostic imaging” (Washington University, priority 2003, dated 2010):
Several values for one entry are separate records, joined by “and”; a condition that tells them apart may be missing. Equal values may be shown once. Read-outs that look alike come from different tables or passages of the source. Values belong to the molecule of their own block, whether it stands above or below them.

Experiments:
σ2 receptors = molecular target: T1, σ2 receptors (Rattus norvegicus, UniProt Q5U3Y7); assay: σ2 receptor binding assay, [^3H]DTG in the presence of (+)-pentazocine, rat liver membrane homogenates; conditions: for σ1:σ2 Ratio: ratio of Ki values
T1 construct: conducted using rat liver membrane homogenates; from tissue; host or cells: rat liver membrane homogenates
T1 sequence (Q5U3Y7 1-176): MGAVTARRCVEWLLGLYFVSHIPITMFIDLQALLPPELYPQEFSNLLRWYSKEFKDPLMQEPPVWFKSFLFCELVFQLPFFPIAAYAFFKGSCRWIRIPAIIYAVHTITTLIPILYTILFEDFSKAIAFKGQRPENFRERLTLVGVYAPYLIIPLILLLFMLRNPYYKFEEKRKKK
Experimental: The incubation time was 120 min at room temperature. […] All other procedures were identical to those described for the σ1 receptor binding assay above.

σ1 receptors = σ1 receptors (Cavia porcellus, UniProt Q60492)
Sequence of σ1 receptors (Q60492 whole entry): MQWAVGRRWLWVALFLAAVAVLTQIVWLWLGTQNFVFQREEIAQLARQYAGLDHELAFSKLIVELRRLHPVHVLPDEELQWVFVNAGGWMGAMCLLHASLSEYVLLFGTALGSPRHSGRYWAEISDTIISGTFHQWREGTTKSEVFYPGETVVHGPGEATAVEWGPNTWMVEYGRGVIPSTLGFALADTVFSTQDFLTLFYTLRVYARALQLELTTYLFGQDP
Experimental: In these assays, the novel sigma ligands were dissolved in N,N-dimethylformamide (DMF), DMSO or ethanol, and then diluted in 50 mM Tris-HCl buffer containing 150 mM NaCl and 100 mM EDTA at pH 7.4 prior to performing the σ1 and σ2 receptor binding assays. […] The samples were harvested and filtered rapidly through a 96-well fiber glass filter plate (millipore, Billerica, Mass.) that had been presoaked with 100 μL of 50 mM Tris-HCl buffer at pH 8.0 for 1 h.
The Ki values were determine from Scatchard plots.

EMT-6 tumors = assay: Biodistribution of 18F-labeled ligands in mice bearing EMT-6 tumors; type: in vivo, female Balb/c mice; conditions: for clearance from the blood (in words): mouse, in vivo
Experimental: This example illustrates in vivo evaluation of compounds of the present teachings. All animal experiments were conducted in compliance with the Guidelines for the Care and Use of Research Animals established by Washington University's Animal Studies Committee. EMT-6 mouse mammary adenocarcinoma cells (5×10^5 cells in 100 uL of phosphate-buffered saline) were implanted subcutaneously in the scapular region of female Balb/c mice (˜2-month old and 17-22 g; Charles River Laboratories). […] Groups of at least 4 mice were used for each time point. […] After counting, the percentage of the injected dose per gram of tissue (%ID/g) was calculated. The tumor/organ ratios were calculated by dividing the %ID/g of the tumor by the %ID/g of each organ.

[1] = 60 min (1 h) after i.v. injection
[2] = 120 min (2 h) after i.v. injection

Molecule: 5-bromo-N-[4-(6,7-dimethoxy-3,4-dihydro-1H-isoquinolin-2-yl)-butyl]-2-(2-fluoro-ethoxy)-3-methoxy-benzamide [compound 3b]
Ki (σ2 receptors; rat liver membranes, [^3H]DTG, mean ± SEM): 386 ± 93 nM | σ1:σ2 Ratio (σ2 receptors): 40 | Ki (σ1 receptors): 15300 nM

Biodistribution: blood (EMT-6 tumors; 5 min after i.v. injection): 3.57 ± 0.43 %ID/g | Biodistribution: bone (EMT-6 tumors; 5 min after i.v. injection): 2.90 ± 0.39 %ID/g | Biodistribution: brain (EMT-6 tumors; 5 min after i.v. injection): 1.09 ± 0.11 %ID/g | Biodistribution: fat (EMT-6 tumors; 5 min after i.v. injection): 2.85 ± 0.47 %ID/g | Biodistribution: heart (EMT-6 tumors; 5 min after i.v. injection): 3.74 ± 0.37 %ID/g | Biodistribution: kidney (EMT-6 tumors; 5 min after i.v. injection): 42.94 ± 3.34 %ID/g | Biodistribution: liver (EMT-6 tumors; 5 min after i.v. injection): 32.60 ± 3.96 %ID/g | Biodistribution: lung (EMT-6 tumors; 5 min after i.v. injection): 12.08 ± 1.98 %ID/g | Biodistribution: muscle (EMT-6 tumors; 5 min after i.v. injection): 1.95 ± 0.19 %ID/g | Biodistribution: tumor (tumor uptake) (EMT-6 tumors; 5 min after i.v. injection): 3.28 ± 0.41 %ID/g | Biodistribution: blood (EMT-6 tumors; 30 min after i.v. injection): 2.81 ± 0.32 %ID/g | Biodistribution: bone (EMT-6 tumors; 30 min after i.v. injection): 1.17 ± 0.06 %ID/g | Biodistribution: brain (EMT-6 tumors; 30 min after i.v. injection): 0.40 ± 0.03 %ID/g | Biodistribution: fat (EMT-6 tumors; 30 min after i.v. injection): 0.96 ± 0.13 %ID/g | Biodistribution: heart (EMT-6 tumors; 30 min after i.v. injection): 1.55 ± 0.11 %ID/g | Biodistribution: kidney (EMT-6 tumors; 30 min after i.v. injection): 17.55 ± 2.75 %ID/g | Biodistribution: liver (EMT-6 tumors; 30 min after i.v. injection): 13.12 ± 1.39 %ID/g | Biodistribution: lung (EMT-6 tumors; 30 min after i.v. injection): 3.08 ± 0.23 %ID/g | Biodistribution: muscle (EMT-6 tumors; 30 min after i.v. injection): 0.98 ± 0.18 %ID/g | Biodistribution: tumor (tumor uptake) (EMT-6 tumors; 30 min after i.v. injection): 2.59 ± 0.19 %ID/g | Biodistribution: tumor (tumor uptake) (EMT-6 tumors; [1]): 2.09 ± 0.28 %ID/g | Biodistribution: blood (EMT-6 tumors; 60 min after i.v. injection): 1.69 ± 0.63 %ID/g | Biodistribution: bone (EMT-6 tumors; 60 min after i.v. injection): 1.12 ± 0.16 %ID/g | Biodistribution: brain (EMT-6 tumors; 60 min after i.v. injection): 0.32 ± 0.05 %ID/g | Biodistribution: fat (EMT-6 tumors; 60 min after i.v. injection): 0.38 ± 0.05 %ID/g | Biodistribution: heart (EMT-6 tumors; 60 min after i.v. injection): 1.04 ± 0.21 %ID/g | Biodistribution: kidney (EMT-6 tumors; 60 min after i.v. injection): 6.92 ± 1.61 %ID/g | Biodistribution: liver (EMT-6 tumors; 60 min after i.v. injection): 5.69 ± 0.54 %ID/g | Biodistribution: lung (EMT-6 tumors; 60 min after i.v. injection): 1.60 ± 0.27 %ID/g | Biodistribution: muscle (EMT-6 tumors; 60 min after i.v. injection): 0.58 ± 0.11 %ID/g | Biodistribution: tumor (tumor uptake) (EMT-6 tumors; [2]): 0.96 %ID/g and 0.96 ± 0.24 %ID/g | Biodistribution: blood (EMT-6 tumors; 120 min after i.v. injection): 0.52 ± 0.10 %ID/g | Biodistribution: bone (EMT-6 tumors; 120 min after i.v. injection): 1.28 ± 0.28 %ID/g | Biodistribution: brain (EMT-6 tumors; 120 min after i.v. injection): 0.20 ± 0.03 %ID/g | Biodistribution: fat (EMT-6 tumors; 120 min after i.v. injection): 0.15 ± 0.06 %ID/g | Biodistribution: heart (EMT-6 tumors; 120 min after i.v. injection): 0.40 ± 0.07 %ID/g | Biodistribution: kidney (EMT-6 tumors; 120 min after i.v. injection): 1.12 ± 0.16 %ID/g | Biodistribution: liver (EMT-6 tumors; 120 min after i.v. injection): 2.30 ± 0.33 %ID/g | Biodistribution: lung (EMT-6 tumors; 120 min after i.v. injection): 0.51 ± 0.08 %ID/g | Biodistribution: muscle (EMT-6 tumors; 120 min after i.v. injection): 0.28 ± 0.10 %ID/g | tumor:fat ratio (EMT-6 tumors; 2 h after i.v. injection): ~6
Molecule: COc1cc2c(cc1OC)CN(CCCCNC(=O)c1cc(Br)ccc1OCC[18F])CC2 [[^18F]3d]
clearance from the blood (in words) (EMT-6 tumors): cleared much more slowly from the blood than [^18F]3c

Biodistribution: blood (EMT-6 tumors; 5 min after i.v. injection): 4.60 ± 0.44 %ID/g | Biodistribution: bone (EMT-6 tumors; 5 min after i.v. injection): 2.59 ± 0.28 %ID/g | Biodistribution: brain (EMT-6 tumors; 5 min after i.v. injection): 0.55 ± 0.04 %ID/g | Biodistribution: fat (EMT-6 tumors; 5 min after i.v. injection): 2.32 ± 0.46 %ID/g | Biodistribution: heart (EMT-6 tumors; 5 min after i.v. injection): 3.22 ± 0.27 %ID/g | Biodistribution: kidney (EMT-6 tumors; 5 min after i.v. injection): 36.07 ± 2.28 %ID/g | Biodistribution: liver (EMT-6 tumors; 5 min after i.v. injection): 37.26 ± 4.88 %ID/g | Biodistribution: lung (EMT-6 tumors; 5 min after i.v. injection): 9.71 ± 0.83 %ID/g | Biodistribution: muscle (EMT-6 tumors; 5 min after i.v. injection): 1.52 ± 0.10 %ID/g | Biodistribution: tumor (tumor uptake) (EMT-6 tumors; 5 min after i.v. injection): 2.54 ± 0.62 %ID/g | Biodistribution: blood (EMT-6 tumors; 30 min after i.v. injection): 4.30 ± 0.59 %ID/g | Biodistribution: bone (EMT-6 tumors; 30 min after i.v. injection): 1.31 ± 0.14 %ID/g | Biodistribution: brain (EMT-6 tumors; 30 min after i.v. injection): 0.44 ± 0.04 %ID/g | Biodistribution: fat (EMT-6 tumors; 30 min after i.v. injection): 1.04 ± 0.06 %ID/g | Biodistribution: heart (EMT-6 tumors; 30 min after i.v. injection): 2.37 ± 0.29 %ID/g | Biodistribution: kidney (EMT-6 tumors; 30 min after i.v. injection): 17.43 ± 1.95 %ID/g | Biodistribution: liver (EMT-6 tumors; 30 min after i.v. injection): 17.35 ± 2.72 %ID/g | Biodistribution: lung (EMT-6 tumors; 30 min after i.v. injection): 4.07 ± 0.46 %ID/g | Biodistribution: muscle (EMT-6 tumors; 30 min after i.v. injection): 1.12 ± 0.05 %ID/g | Biodistribution: tumor (tumor uptake) (EMT-6 tumors; 30 min after i.v. injection): 2.81 ± 0.62 %ID/g | Biodistribution: tumor (tumor uptake) (EMT-6 tumors; [1]): 2.72 ± 0.13 %ID/g | Biodistribution: blood (EMT-6 tumors; 60 min after i.v. injection): 3.39 ± 0.29 %ID/g | Biodistribution: bone (EMT-6 tumors; 60 min after i.v. injection): 0.99 ± 0.07 %ID/g | Biodistribution: brain (EMT-6 tumors; 60 min after i.v. injection): 0.36 ± 0.02 %ID/g | Biodistribution: fat (EMT-6 tumors; 60 min after i.v. injection): 0.62 ± 0.10 %ID/g | Biodistribution: heart (EMT-6 tumors; 60 min after i.v. injection): 1.61 ± 0.11 %ID/g | Biodistribution: kidney (EMT-6 tumors; 60 min after i.v. injection): 9.36 ± 0.90 %ID/g | Biodistribution: liver (EMT-6 tumors; 60 min after i.v. injection): 7.31 ± 0.98 %ID/g | Biodistribution: lung (EMT-6 tumors; 60 min after i.v. injection): 2.34 ± 0.12 %ID/g | Biodistribution: muscle (EMT-6 tumors; 60 min after i.v. injection): 0.83 ± 0.04 %ID/g | Biodistribution: tumor (tumor uptake) (EMT-6 tumors; [2]): 1.92 %ID/g and 1.92 ± 0.10 %ID/g | Biodistribution: blood (EMT-6 tumors; 120 min after i.v. injection): 1.92 ± 0.59 %ID/g | Biodistribution: bone (EMT-6 tumors; 120 min after i.v. injection): 1.67 ± 0.27 %ID/g | Biodistribution: brain (EMT-6 tumors; 120 min after i.v. injection): 0.37 ± 0.06 %ID/g | Biodistribution: fat (EMT-6 tumors; 120 min after i.v. injection): 0.44 ± 0.08 %ID/g | Biodistribution: heart (EMT-6 tumors; 120 min after i.v. injection): 1.00 ± 0.23 %ID/g | Biodistribution: kidney (EMT-6 tumors; 120 min after i.v. injection): 3.92 ± 0.98 %ID/g | Biodistribution: liver (EMT-6 tumors; 120 min after i.v. injection): 4.25 ± 1.56 %ID/g | Biodistribution: lung (EMT-6 tumors; 120 min after i.v. injection): 1.36 ± 0.24 %ID/g | Biodistribution: muscle (EMT-6 tumors; 120 min after i.v. injection): 0.60 ± 0.11 %ID/g
Molecule: COc1cc2c(cc1OC)CN(CCCCNC(=O)c1cc(I)ccc1OCC[18F])CC2 [[^18F]3e]
clearance from the blood (in words) (EMT-6 tumors): cleared much more slowly from the blood than [^18F]3c

Ki (σ2 receptors): 102 ± 4 nM | σ1:σ2 Ratio (σ2 receptors): 222 | Ki (σ1 receptors): 22800 nM
Molecule: COc1cc2c(cc1OC)CN(CCNC(=O)c1cc(C)ccc1OCCF)CC2 [compound 3a, [N-(6,7-dimethoxy-3,4-dihydro-1H-isoquinolin-2-yl)-ethyl]-2-(2-fluoro-ethoxy)-5-methyl benzamide]

Ki (σ2 receptors): 0.65 ± 0.22 nM | σ1:σ2 Ratio (σ2 receptors): 1,656 | Ki (σ1 receptors): 1080 nM
Molecule: COc1cc2c(cc1OC)CN(CCCCNC(=O)c1cc(Br)ccc1OCCF)CC2 [compound 3d, N-[4-(6,7-dimethoxy-3,4-dihydro-1H-isoquinolin-2-yl)-butyl]-2-(2-fluoro-ethoxy)-5-bromo-benzamide]

Ki (σ1 receptors): 1300 nM
Molecule: COc1cc2c(cc1OC)CN(CCCCNC(=O)c1cc(I)ccc1OCCF)CC2 [compound 3e, N-[4-(6,7-dimethoxy-3,4-dihydro-1H-isoquinolin-2-yl)-butyl]-2-(2-fluoro-ethoxy)-5-iodo-benzamide]

Ki (σ2 receptors): 0.26 ± 0.07 nM | σ1:σ2 Ratio (σ2 receptors): 8,190 | Ki (σ1 receptors): 2150 nM
Molecule: COc1cc2c(cc1OC)CN(CCCCNC(=O)c1cc(I)cc(OC)c1OCCF)CC2 [compound 3f]
